The values that follow come from patent US10300058B2, “Tyrosine kinase inhibitor and uses thereof” (Xuanzhu Pharma Co., Ltd., priority 2014, dated 2019).

The target of experiment [1] is EGFR T790M-L858R (Homo sapiens (Human), UniProt P00533, L858R/T790M). Briefly: Mobility Shift Assay, in vitro enzyme-inhibiting activity, EGFR T790M-L858R. Format: biochemical. The note with it: Table 5. How it is done:
(§1) 1. Preparation of Reagents
(§2) 2. Preparation of a Compound Solution
(§3) (1) To the second well of a 96-well plate, 5 μL 10 mM compound (dissolved in DMSO) was added, and 95 μL 100% DMSO was added to prepare 100 μL 0.5 mM compound.
(§4) (2) To other wells, 60 μL 100% DMSO was added. 20 μL compound from the second well was added to the third well, and 4-fold dilution was further performed to get 10 diluted concentrations.
(§5) (3) To the first well and the twelfth well of the 96-well plate, 100 μL 100% DMSO was separately added, and the two wells were used as control wells.
(§6) (4) 10 μL from each well of the 96-well plate was added to another 96-well plate, and 90 μL 1-fold kinase buffer was added.
(§7) (5) 5 μL from the 96-well plate was added to another 384-well plate, for example, transferred from A1 well of the 96-well plate to A1 and A2 wells of the 384-well plate, and transferred from A2 well of the 96-well plate to A3 and A4 wells of the 384-well plate, and so on.
(§8) To 384-well plate, 10 μL 2.5-fold enzyme solution was added, and incubated at room temperature for 10 min.
(§9) (5) Kinase reaction and stop
(§10) After incubation at 28° C. for a period of time (depending on kinase), 25 μL stop solution was added.
(§11) 4. Data on percent conversion was read by Caliper.
(§12) (1) Data on enzyme activity was obtained by Caliper program;
(§13) (2) Inhibition rate of enzyme activity was calculated from the data on enzyme activity by the following formula: Inhibition rate(%)=(maximal value−the measured value of a test compound)/(maximal value-minimal value)×100,
(§14) wherein, the maximal value represents the measured value of DMSO control; and the minimal value represents the measured value of blank control.
(§15) (3) Calculation of IC50 value by XLFit excel.

Experiment [2] addresses EGFR T790M (Homo sapiens (Human), UniProt P00533, T790M). Put plainly: Mobility Shift Assay, in vitro enzyme-inhibiting activity, EGFR T790M. It is filed as biochemical. The conditions noted are these: for IC50: Km ATP; for Selectivity (WT/T790M): ratio of IC50. As for the experimental part:
as §1, §2, §3, §4, §5, §6, §7, §8, §9, §10, §11, §12, §13, §14, §15

For experiment [3], the system named is H1975 cell (EGFR-T790M/L858R double mutation). Briefly: In vitro cytologic activity, Celltiter-Glo, H1975 cells. Format: cell-based, human. The note with it: for IC50: Homo sapiens, NCI-H1975, 72 h, 72 h, Celltiter-Glo; for Selectivity (A431/H1975): ratio of IC50. As for the experimental part: (§16) 1.1 Preparation of Cell Suspension
(§17) Culture medium was removed from culture bottle;
(§18) PBS was added to wash the cells; • pancreatin was added for digestion, and the cells were collected by centrifugation; • the cells were resuspended in a culture medium containing 10% fetal bovine serum, counted and adjusted to a concentration of 2×10^4/mL or 3×10^4/mL (cell viability must be greater than 90%); • the cell suspension was added to a 96-well plate, at 100 μL for each well, i.e., 2000/well for H1975 cell; 3000/well for A431 cell; and • the cells were cultured at 37° C. in 5% CO2 incubator overnight.
(§19) Dilution of a compound in DMSO (or water for injection) • (1) The compound was 5-fold diluted with DMSO from 10 mM to 2 mM, and then 4-fold diluted from 2 mM, to get 10 concentrations; • High control (HC, control without compound inhibition): 0.5% DMSO; • Low control (LC, control with compound inhibition): 1000 nM.
(§20) i. To each well, 99 μL growth medium containing 10% FBS was added, and then 1 μL diluted compound was added, the total volume of the well was […], and the final concentration of the compound was measured.
(§21) The test plate was left at room temperature, and equilibrated for 30 min. 80 μL culture medium was discarded. 60 μL CTG reagent (Celltiter-Glo kit) was added, and shaked for 2 min in a fast shaker, and was placed at room temperature for 10 min. The values were read by Envision instrument.

Experiment [4] concerns A431 cell (wild-type EGFR gene). Put plainly: In vitro cytologic activity, Celltiter-Glo, A431 cells. The note with it: Homo sapiens, A-431, 72 h. Format: cell-based. As for the experimental part:
as §16, §17, §18, §19, §20, §21

Experiment [5] addresses wild-type EGFR (WT EGFR) (Homo sapiens (Human), UniProt P00533). Briefly: Mobility Shift Assay, in vitro enzyme-inhibiting activity, wild-type EGFR. It is filed as biochemical. The note with it: Km ATP. As for the experimental part:
as §1, §2, §3, §4, §5, §6, §7, §8, §9, §10, §11, §12, §13, §14, §15

Experiment [6] deals with EGFR L858R (Homo sapiens (Human), UniProt P00533, L858R). Put plainly: Mobility Shift Assay, in vitro enzyme-inhibiting activity, EGFR L858R. It is filed as biochemical. The conditions noted are these: Table 5. How it is done:
as §1, §2, §3, §4, §5, §6, §7, §8, §9, §10, §11, §12, §13, §14, §15

The target of experiment [7] is EGFR (d746-750) (Homo sapiens (Human), UniProt P00533, DEL746-750). Briefly: Mobility Shift Assay, in vitro enzyme-inhibiting activity, EGFR (d746-750). It is filed as biochemical. The conditions noted are these: Table 5. How it is done: as §1, §2, §3, §4, §5, §6, §7, §8, §9, §10, §11, §12, §13, §14, §15
Sequence of EGFR (d746-750) (P00533 other isoform, or with tags, fused parts or gaps del 1-668/del 746-750 limits assumed): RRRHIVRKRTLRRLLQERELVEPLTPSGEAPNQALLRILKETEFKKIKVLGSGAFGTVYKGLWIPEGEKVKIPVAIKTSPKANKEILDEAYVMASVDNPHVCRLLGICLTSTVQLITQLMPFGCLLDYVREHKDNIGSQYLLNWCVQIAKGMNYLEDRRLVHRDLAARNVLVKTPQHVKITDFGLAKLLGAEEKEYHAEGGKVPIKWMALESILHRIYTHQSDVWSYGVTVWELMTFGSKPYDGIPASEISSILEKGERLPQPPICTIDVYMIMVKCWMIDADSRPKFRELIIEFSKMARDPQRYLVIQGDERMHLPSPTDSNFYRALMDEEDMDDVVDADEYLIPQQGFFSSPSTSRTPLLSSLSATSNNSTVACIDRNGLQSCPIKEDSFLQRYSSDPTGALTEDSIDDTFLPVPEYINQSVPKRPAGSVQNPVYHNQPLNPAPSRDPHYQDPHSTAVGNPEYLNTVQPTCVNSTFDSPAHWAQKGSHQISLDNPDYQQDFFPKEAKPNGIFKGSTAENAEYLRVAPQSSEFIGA

Sequence of wild-type EGFR (WT EGFR) (P00533 25-1210): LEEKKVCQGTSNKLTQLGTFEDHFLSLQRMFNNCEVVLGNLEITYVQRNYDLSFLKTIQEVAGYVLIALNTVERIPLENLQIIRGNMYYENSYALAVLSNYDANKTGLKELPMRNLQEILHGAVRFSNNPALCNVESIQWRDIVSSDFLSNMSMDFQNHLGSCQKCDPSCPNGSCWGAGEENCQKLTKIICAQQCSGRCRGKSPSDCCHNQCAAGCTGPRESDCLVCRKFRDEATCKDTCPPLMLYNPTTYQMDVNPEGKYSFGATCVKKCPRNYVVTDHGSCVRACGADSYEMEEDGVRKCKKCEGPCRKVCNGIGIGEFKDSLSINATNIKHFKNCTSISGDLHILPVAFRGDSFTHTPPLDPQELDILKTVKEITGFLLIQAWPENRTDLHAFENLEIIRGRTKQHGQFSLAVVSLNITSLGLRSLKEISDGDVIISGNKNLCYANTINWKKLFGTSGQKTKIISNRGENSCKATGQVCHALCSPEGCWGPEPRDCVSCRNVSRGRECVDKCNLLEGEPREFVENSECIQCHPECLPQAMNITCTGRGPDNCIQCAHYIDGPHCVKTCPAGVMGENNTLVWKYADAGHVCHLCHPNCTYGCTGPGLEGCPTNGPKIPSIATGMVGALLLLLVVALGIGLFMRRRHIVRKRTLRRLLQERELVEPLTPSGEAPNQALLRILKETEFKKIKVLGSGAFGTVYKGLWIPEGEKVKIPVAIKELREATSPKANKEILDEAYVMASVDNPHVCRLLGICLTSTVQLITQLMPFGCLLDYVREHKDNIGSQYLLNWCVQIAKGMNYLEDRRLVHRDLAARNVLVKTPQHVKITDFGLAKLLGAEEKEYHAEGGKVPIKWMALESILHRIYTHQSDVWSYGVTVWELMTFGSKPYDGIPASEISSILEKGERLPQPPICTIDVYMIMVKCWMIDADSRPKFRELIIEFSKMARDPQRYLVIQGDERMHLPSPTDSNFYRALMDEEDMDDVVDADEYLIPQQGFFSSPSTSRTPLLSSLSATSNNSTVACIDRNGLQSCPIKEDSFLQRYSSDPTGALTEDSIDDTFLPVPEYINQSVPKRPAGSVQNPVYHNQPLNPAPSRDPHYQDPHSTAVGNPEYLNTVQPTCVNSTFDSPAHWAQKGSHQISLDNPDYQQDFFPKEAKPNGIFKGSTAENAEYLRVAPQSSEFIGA
Sequence of EGFR T790M (P00533 25-1210 T790M): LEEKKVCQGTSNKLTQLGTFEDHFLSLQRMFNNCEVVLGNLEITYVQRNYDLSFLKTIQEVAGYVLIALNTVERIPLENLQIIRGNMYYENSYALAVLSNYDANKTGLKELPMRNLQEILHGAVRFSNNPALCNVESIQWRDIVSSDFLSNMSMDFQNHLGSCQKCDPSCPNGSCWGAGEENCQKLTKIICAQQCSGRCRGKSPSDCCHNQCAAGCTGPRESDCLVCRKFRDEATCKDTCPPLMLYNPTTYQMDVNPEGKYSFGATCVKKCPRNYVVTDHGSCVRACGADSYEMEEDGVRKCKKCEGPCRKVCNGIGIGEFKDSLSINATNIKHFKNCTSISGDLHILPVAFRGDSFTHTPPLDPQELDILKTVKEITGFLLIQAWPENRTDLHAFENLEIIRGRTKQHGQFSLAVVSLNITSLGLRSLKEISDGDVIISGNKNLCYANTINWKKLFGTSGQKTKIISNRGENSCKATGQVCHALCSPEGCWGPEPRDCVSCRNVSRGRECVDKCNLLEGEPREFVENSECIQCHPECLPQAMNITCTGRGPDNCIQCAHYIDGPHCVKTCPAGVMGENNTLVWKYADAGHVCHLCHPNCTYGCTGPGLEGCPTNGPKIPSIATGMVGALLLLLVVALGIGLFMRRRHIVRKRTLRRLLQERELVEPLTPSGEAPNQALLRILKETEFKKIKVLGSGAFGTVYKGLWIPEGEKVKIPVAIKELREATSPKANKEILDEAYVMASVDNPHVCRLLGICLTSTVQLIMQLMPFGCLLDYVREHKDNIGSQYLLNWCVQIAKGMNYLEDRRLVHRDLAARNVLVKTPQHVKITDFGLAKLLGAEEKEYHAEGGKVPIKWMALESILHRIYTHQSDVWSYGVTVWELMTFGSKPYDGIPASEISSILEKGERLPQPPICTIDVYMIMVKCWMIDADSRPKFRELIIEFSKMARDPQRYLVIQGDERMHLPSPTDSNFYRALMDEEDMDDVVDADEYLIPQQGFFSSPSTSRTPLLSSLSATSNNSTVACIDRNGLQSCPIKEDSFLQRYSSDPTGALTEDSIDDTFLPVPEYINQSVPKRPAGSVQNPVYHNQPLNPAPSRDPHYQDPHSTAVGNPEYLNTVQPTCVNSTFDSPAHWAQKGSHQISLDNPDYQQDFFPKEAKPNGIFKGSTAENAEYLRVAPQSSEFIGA
Sequence of EGFR T790M-L858R (P00533 25-1210 T790M/L858R): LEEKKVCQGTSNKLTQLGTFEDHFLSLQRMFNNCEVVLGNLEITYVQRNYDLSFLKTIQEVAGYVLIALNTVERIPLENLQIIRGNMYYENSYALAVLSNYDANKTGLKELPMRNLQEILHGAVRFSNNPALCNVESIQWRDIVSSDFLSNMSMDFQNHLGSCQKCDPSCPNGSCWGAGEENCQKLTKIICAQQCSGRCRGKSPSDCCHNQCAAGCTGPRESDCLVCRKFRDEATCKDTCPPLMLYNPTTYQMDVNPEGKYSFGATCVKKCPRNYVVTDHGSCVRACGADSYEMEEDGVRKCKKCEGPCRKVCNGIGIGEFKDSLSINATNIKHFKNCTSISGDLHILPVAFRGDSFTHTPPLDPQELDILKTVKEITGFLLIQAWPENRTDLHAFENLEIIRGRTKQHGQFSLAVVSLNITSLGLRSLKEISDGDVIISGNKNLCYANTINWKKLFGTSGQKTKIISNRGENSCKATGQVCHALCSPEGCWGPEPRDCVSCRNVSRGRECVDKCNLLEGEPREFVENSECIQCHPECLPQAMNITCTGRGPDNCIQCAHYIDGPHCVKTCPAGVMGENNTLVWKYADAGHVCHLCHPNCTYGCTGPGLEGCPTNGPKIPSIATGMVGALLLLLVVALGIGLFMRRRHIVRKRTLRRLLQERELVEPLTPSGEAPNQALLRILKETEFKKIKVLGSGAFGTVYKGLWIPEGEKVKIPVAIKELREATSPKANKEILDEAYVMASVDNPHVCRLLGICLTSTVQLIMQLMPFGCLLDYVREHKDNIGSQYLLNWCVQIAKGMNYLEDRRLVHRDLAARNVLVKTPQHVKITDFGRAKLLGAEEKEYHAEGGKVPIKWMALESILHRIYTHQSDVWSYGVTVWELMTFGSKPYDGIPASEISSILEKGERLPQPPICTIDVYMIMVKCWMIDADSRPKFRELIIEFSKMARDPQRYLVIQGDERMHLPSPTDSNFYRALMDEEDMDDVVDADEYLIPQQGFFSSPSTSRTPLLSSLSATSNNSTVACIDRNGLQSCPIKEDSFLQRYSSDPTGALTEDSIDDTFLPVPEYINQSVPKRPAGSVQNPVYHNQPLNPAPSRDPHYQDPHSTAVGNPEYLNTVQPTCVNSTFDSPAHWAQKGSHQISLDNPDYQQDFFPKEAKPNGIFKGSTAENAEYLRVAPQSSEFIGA

In the case of `C=CC(=O)Nc1cccc(Nc2nc(Nc3ccc(N4CCN(C(C)=O)CC4)cc3OC)ncc2C(F)(F)F)n1` [Compound 1, N-(6-((2-((4-(4-acetylpiperazin-1-yl)-2-methoxyphenyl)amino)-5-(trifluoromethyl)pyrimidin-4-yl)amino)pyridin-2-yl)acrylamide], the IC50 in experiment [1] (Km ATP) stood at 4.4 nM; in experiment [2] (Table 1), 5.7 nM; in experiment [3] (Table 9) it was 54.2 nM; in experiment [4] (Table 9) it was 448 nM; in experiment [5] (Table 1) it was 323 nM; in experiment [5] (Table 5), 240 nM. The values for the IC50 in experiment [6] (Km ATP) and in experiment [7] (Km ATP) were 84.7 nM and 20.3 nM, respectively. Further, the “Selectivity WT/T790M-L858R” value in experiment [1] (ratio of IC50) is 54.3. Further, the “Selectivity (WT/T790M)” value in experiment [2] (Table 1) is recorded as 56.7. The “Selectivity (A431/H1975)” value in experiment [3] (Table 9) was found to be 8.3. Further, the “Selectivity WT/L858R” value in experiment [6] (ratio of IC50) came to 2.8. Moreover, in experiment [7] (ratio of IC50), the “Selectivity WT/d746-750” value came to 11.8.

Take `C=CC(=O)Nc1cccc(Nc2nc(Nc3ccc(C4CCN(C(=O)CCF)CC4)cc3OC)ncc2C(F)(F)F)c1` [Compound 25, N-(3-((2-((4-(1-(3-fluoropropionyl)piperidin-4-yl)-2-methoxyphenyl)amino)-5-(trifluoromethyl)pyrimidin-4-yl)amino)phenyl)acrylamide]: the IC50 in experiment [2] (Table 4, unit inferred) is 7.1 nM; in experiment [3] (Table 10, unit inferred), 308 nM; in experiment [4] (Table 10, unit inferred), 3890 nM; in experiment [5] (Table 4, unit inferred), 683 nM. Also, the “Selectivity (WT/T790M)” value in experiment [2] (Table 4) came out at 96.2. Moreover, in experiment [3] (Table 10), the “Selectivity (A431/H1975)” value is on record as 12.6.

On to `C=CC(=O)Nc1cccc(Nc2nc(Nc3ccc(C4CCN(C)CC4)cc3OC)ncc2C(F)(F)F)c1` [Compound 29, N-(3-((2-((2-methoxy-4-(1-methylpiperidin-4-yl)phenyl)amino)-5-(trifluoromethyl)pyrimidin-4-yl)amino)phenyl)acrylamide], for which the IC50 in experiment [2] (Table 4, unit inferred) was 0.32 nM; in experiment [3] (Table 10, unit inferred) it was 22.5 nM; in experiment [4] (Table 10, unit inferred) it was 272 nM; in experiment [5] (Table 4, unit inferred) it was 11 nM. Also, in experiment [2] (Table 4), the “Selectivity (WT/T790M)” value is given as 34.4. The “Selectivity (A431/H1975)” value in experiment [3] (Table 10) was determined as 12.1.

With `C=CC(=O)Nc1cccc(Nc2nc(Nc3ccc(C4CCN(C5COC5)CC4)cc3OC)ncc2C(F)(F)F)c1` [Compound 41, N-(3-((2-((2-methoxy-4-(1-(oxetan-3-yl)piperidin-4-yl)phenyl)amino)-5-(trifluoromethyl)pyrimidin-4-yl)amino)phenyl)acrylamide], the IC50 in experiment [2] (Table 4, unit inferred) amounted to 1.4 nM; in experiment [3] (Table 10, unit inferred) it was 28.5 nM; in experiment [4] (Table 10, unit inferred), 247 nM; in experiment [5] (Table 4, unit inferred), 82 nM. The “Selectivity (WT/T790M)” value in experiment [2] (Table 4) worked out at 58.6. In addition, the “Selectivity (A431/H1975)” value in experiment [3] (Table 10) is given as 8.6.

On to `C=CC(=O)Nc1cccc(Nc2nc(Nc3ccc(OCCCS(C)(=O)=O)cc3OC)ncc2C(F)(F)F)c1` [Compound 43, N-(3-((2-((2-methoxy-4-(3-(methylsulfonyl)propoxy)phenyl)amino)-5-(trifluoromethyl)pyrimidin-4-yl)amino)phenyl)acrylamide], for which the 50% inhibitory concentration (IC50) in experiment [2] (Table 4, unit inferred) came out at 3.6 nM; in experiment [3] (Table 10, unit inferred), 430 nM; in experiment [4] (Table 10, unit inferred) it was 2640 nM; in experiment [5] (Table 4, unit inferred), 159 nM. In addition, the “Selectivity (WT/T790M)” value in experiment [2] (Table 4) was 44.2. Moreover, the “Selectivity (A431/H1975)” value in experiment [3] (Table 10) amounted to 6.1.
